Assay results taken from ChEMBL document CHEMBL1125126, “Torsionally and hydrophobically modified 2,3-diarylindenes as estrogen receptor ligands” (J Med Chem, 1990).

biological target: Estrogen receptor (Rattus norvegicus) (UniProt P06211+Q62986); experiment: Displacement of [3H]estradiol from rat uterine estrogen receptor; assay type: protein assay

Compared with `Oc1ccc2c(c1)CC(c1ccccc1F)=C2c1ccccc1`, `Oc1ccc2c(c1)CC(c1ccccc1)=C2c1ccccc1F` is lower in RBA: 49% for the first, 12% for the second.

Going from `Oc1ccc(C2=C(c3ccccc3)Cc3cc(O)ccc32)c(F)c1` to `Cc1ccccc1C1=C(c2ccccc2)Cc2cc(O)ccc21`, the RBA rises from 9.6% to 11%.

First: Cc1ccccc1C1=C(c2ccc(O)cc2)c2ccc(O)cc2C1
Second: Cc1ccccc1C1=C(c2ccccc2)c2ccc(O)cc2C1
The RBA of the first is lower: 23% for the first, 100% for the second.

Molecule `Cc1ccc(C2=C(c3ccccc3)Cc3cc(O)ccc32)cc1` has an RBA of 1.7%.
